According to publication PMC9157728, “Albumin Binder–Conjugated Fibroblast Activation Protein Inhibitor Radiopharmaceuticals for Cancer Therapy” (Journal of Nuclear Medicine, 2022):
Like-named read-outs stand apart in the source and are kept apart here.

What was measured:
[1] = molecular target: T1, FAP (Homo sapiens, UniProt Q12884); experiment: Blocking study in vivo with cold ligand; set-up: from tissue; host or cells: tumour in tumour-bearing mice; species or system mice; details: 12 h and 24 h after treatment with cold ligand
T1 sequence (Q12884 1-760): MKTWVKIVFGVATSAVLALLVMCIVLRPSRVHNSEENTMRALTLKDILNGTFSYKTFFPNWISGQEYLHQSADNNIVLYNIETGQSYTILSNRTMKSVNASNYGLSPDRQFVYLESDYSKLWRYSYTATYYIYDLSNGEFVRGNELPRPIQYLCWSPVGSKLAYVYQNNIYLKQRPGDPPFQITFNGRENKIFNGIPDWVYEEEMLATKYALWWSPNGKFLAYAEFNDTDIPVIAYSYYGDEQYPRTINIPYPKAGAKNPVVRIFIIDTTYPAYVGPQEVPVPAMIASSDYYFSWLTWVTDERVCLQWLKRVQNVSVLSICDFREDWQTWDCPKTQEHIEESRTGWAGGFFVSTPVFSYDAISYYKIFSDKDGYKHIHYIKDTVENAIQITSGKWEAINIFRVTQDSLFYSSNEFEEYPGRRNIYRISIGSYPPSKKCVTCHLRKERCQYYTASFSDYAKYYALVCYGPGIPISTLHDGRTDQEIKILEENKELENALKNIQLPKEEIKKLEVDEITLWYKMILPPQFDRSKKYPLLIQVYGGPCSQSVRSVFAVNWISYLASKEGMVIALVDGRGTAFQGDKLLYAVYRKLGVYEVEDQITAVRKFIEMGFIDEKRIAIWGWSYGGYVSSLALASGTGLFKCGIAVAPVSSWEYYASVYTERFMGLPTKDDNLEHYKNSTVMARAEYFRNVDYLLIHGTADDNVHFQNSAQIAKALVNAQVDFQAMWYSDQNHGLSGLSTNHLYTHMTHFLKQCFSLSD

[2] = test system: pancreatic cancer PDX tumors; experiment: Static PET imaging in pancreatic cancer PDX-bearing mice; assay type: in vivo; details: for tumor area under the curve relative to FAPI-04: ^86Y PET tumor SUVmean curve; for peak tumor SUVmean / time of peak tumor SUVmean after injection: ^86Y PET
Experimental: (§1) All animal care and experimental procedures were performed by following the animal protocols (CCME-LiuZB-2) approved by the ethics committee of Peking University. The mice were from the Beijing Vital River Laboratory Animal Technology Co., Ltd. For cell-line–derived xenograft models, 5 × 10^6 HT-1080-FAP or HT-1080 cells were subcutaneously inoculated into the right shoulder of 6-wk-old female nu/nu-mice. To establish the patient-derived xenograft (PDX) model, tumor specimens were obtained from patients who underwent presurgical ^68Ga-FAPI-04 PET/CT imaging to confirm that the tumor was FAP-positive. After surgical resection, the tumor specimens were immediately placed in ready-to-use fresh tissue preservation solution (TM2701-100) and transported under refrigerated conditions within 2 h. The research protocol was approved by the Institutional Ethics Committee of Peking Union Medical College Hospital (JS-2628). Six-week-old female nonobese diabetic/severe combined immunodeficiency (NOD/SCID) mice were used to establish the PDX models. After being removed from the preservation solution, the tumor specimens were immediately immersed in sterile PBS solution and minced with scissors, and the fragments were then implanted subcutaneously into the left and right shoulders of the mice, which were anesthetized with isoflurane in advance. Engraftment efficiency was determined by ^68Ga-FAPI-04 PET/CT imaging (Supplemental Fig. 21A).
All PET scans were performed on a Mediso nanoScan PET 122S small-animal PET/CT imaging system. For the 60-min dynamic PET scan, 29.6–37.0 MBq of ^68Ga-TEFAPI-06 or ^68Ga-TEFAPI-07 were given to healthy NOD/SCID mice through tail-vein injection. The static PET imaging was performed on mice bearing pancreatic PDX tumors, HT-1080-FAP tumors, and HT-1080 tumors at the indicated time points after intravenous injection of 7.4–11.1 MBq of ^86Y-FAPI-04,^86Y-TEFAPI-06, or ^86Y-TEFAPI-07.

[3] = molecular target: T1, FAP; experiment: Competition assay against ^68Ga-FAPI-04 in HT-1080-FAP cells; assay type: binding; set-up: host or cells: HT-1080 human fibrosarcoma cells (HT-1080-FAP)
Experimental: (§2) The human fibrosarcoma cell line (HT-1080), and the HT-1080 cell line transfected with human FAP gene (HT-1080-FAP, from WuXi AppTec), were cultivated in Eagle minimum essential medium containing 10% fetal bovine serum, 1% antibiotic–antimycotic, and a 4 μg/mL concentration of blasticidin S at 37°C under conditions of 5% carbon dioxide. For competition assays, HT-1080-FAP cells were seeded in 6-well plates and cultivated until they reached about 1.2 × 10^6 cells per well. The cells were incubated simultaneously with unlabeled FAPI-04, TEFAPI-06, or TEFAPI-07 (10^−5–10^−9 M) with ^68Ga-FAPI-04 in 1 mL of fresh medium without fetal bovine serum for 1 h. The medium was removed, and the cells were washed twice with phosphate-buffered saline (PBS). Subsequently, the cells were lysed with 0.5 mL of 1 M NaOH and washed with 0.5 mL of PBS twice, and the NaOH (0.5 mL) and PBS (0.5 mL × 2) were collected to determine the uptake counts. For saturation binding assays, HT-1080-FAP and HT-1080 cells were seeded in 24-well plates and cultivated until they reached about 2 × 10^5 cells per well. ^68Ga-FAPI-04, ^68Ga-TEFAPI-06, or ^68Ga-TEFAPI-07 was diluted to a concentration 0.01–200 nM in fresh medium without fetal bovine serum. The cells were incubated in the above solution for 1 h and then washed twice with PBS. The lysed cells and the PBS for washing were collected to determine the counts.

[4] = molecular target: T1, FAP; experiment: Saturation binding assay of ^68Ga-labeled tracers in HT-1080-FAP and HT-1080 cells; set-up: host or cells: HT-1080 human fibrosarcoma cells (HT-1080-FAP)
Experimental: as §2

[5] = test system: HT-1080 cells; experiment: Cellular uptake assay in HT-1080 cells; assay type: cell-based, human; details: HT-1080 cells (FAP-negative)
Experimental: as §2

[6] = Dynamic PET imaging in healthy NOD/SCID mice (heart/blood signal); assay type: in vivo; details: for time of peak signal in heart after injection: dynamic PET
[7] = test system: HT-1080-FAP cells; experiment: Cellular uptake assay in HT-1080-FAP cells; assay type: cell-based, human
[8] = test system: HT-1080-FAP and HT-1080 tumors; experiment: PET imaging of HT-1080-FAP and HT-1080 tumor-bearing mice; assay type: in vivo; details: ^86Y PET, tumor-bearing nu/nu mice
Experimental: as §1, with “After being removed from the preservation solution, the tumor specimens were immediately immersed in sterile PBS solution and minced with scissors, and the fragments were then implanted subcutaneously into the left and right shoulders of the mice, which were anesthetized with isoflurane in advance.” left out, “21A). […]” for “21A).”

[9] = 0.05% human serum albumin, read-out: half-maximal inhibitory concentration in the presence of albumin
[10] = HT-1080-FAP cells, unlabeled ligand vs ^68Ga-FAPI-04, 1 h, medium without FBS, read-out: half-maximal inhibitory concentration (IC50)
[11] = ^68Ga-labeled tracer, 0.01-200 nM, 1 h, medium without FBS, read-out: dissociation constant (Kd)
[12] = binding assays in 0.05% human serum albumin, sentence prints 'in the absence of albumin', read-out: dissociation constant, binding assays in 0.05% human serum albumin

Row | SMILES | tumor uptake after treatment with cold ligand (blocking) [1] | tumor area under the curve relative to FAPI-04 [2] | IC50 [3, 9] | IC50 [3, 10] | Kd [4, 11] | Kd [4, 12] | cellular uptake in HT-1080 cells [5] | decrease of heart signal from 10 to 60 min after injection [6] | decrease of heart signal from 10 to 240 min after injection [6] | decrease of heart signal from 60 to 240 min after injection [6] | time of peak signal in heart after injection [6] | cellular uptake in HT-1080-FAP cells [7] | tumor SUVmean at 36 h after injection [2] | peak tumor SUVmean [2] | time of peak tumor SUVmean after injection [2] | uptake in HT-1080-FAP tumors relative to HT-1080 tumors [8]
1 | Cc1cc(-c2ccc(NC(=O)CCCC(=O)N[C@@H](CCCCNC(=O)CN3CCN(CC(=O)O)CCN(CC(=O)O)CCN(CC(=O)O)CC3)C(=O)N3CCN(CCCOc4ccc5nccc(C(=O)NCC(=O)N6CC(F)(F)C[C@H]6C#N)c5c4)CC3)c(C)c2)ccc1N=Nc1ccc2c(S(=O)(=O)O)cc(S(=O)(=O)O)c(N)c2c1O [TEFAPI-07] | tumor uptake decreased | 35.5 fold | 27.7 ± 5 nM | 17 ± 1.43 nM | 7.81 ± 2.28 nM | 19.1 ± 5.54 nM |  |  |  |  |  |  |  |  |  | 
2 | N#C[C@@H]1CC(F)(F)CN1C(=O)CNC(=O)c1ccnc2ccc(OCCCN3CCN(C(=O)[C@H](CCCCNC(=O)CN4CCN(CC(=O)[O-])CCN(CC(=O)[O-])CCN(CC(=O)[O-])CC4)NC(=O)CCCC(=O)NC(CCCCNC(=O)CCCc4ccc(I)cc4)C(=O)O)CC3)cc12.[68Ga+3] (stereo partly shown) [^68Ga-TEFAPI-06] |  |  |  |  | 10.2 ± 2.56 nM |  | almost negligible uptake | 35.70% ± 4.74% | 56.18% ± 2.50% | 31.80% ± 1.15% | about 2 min | significant uptake |  |  |  | 
3 | N#C[C@@H]1CC(F)(F)CN1C(=O)CNC(=O)c1ccnc2ccc(OCCCN3CCN(C(=O)[C@H](CCCCNC(=O)CN4CCN(CC(=O)O)CCN(CC(=O)O)CCN(CC(=O)O)CC4)NC(=O)CCCC(=O)NC(CCCCNC(=O)CCCc4ccc(I)cc4)C(=O)O)CC3)cc12 (stereo partly shown) [TEFAPI-06] | tumor uptake decreased | 37.9 fold | 11.4 ± 1.15 nM | 12.2 ± 0.65 nM | 10.2 ± 2.56 nM | 4.37 ± 0.81 nM |  |  |  |  |  |  |  |  |  | 
4 | N#C[C@@H]1CC(F)(F)CN1C(=O)CNC(=O)c1ccnc2ccc(OCCCN3CCN(C(=O)[C@H](CCCCNC(=O)CN4CCN(CC(=O)[O-])CCN(CC(=O)[O-])CCN(CC(=O)[O-])CC4)NC(=O)CCCC(=O)NC(CCCCNC(=O)CCCc4ccc(I)cc4)C(=O)O)CC3)cc12.[86Y+3] (stereo partly shown) [^86Y-TEFAPI-06] |  |  |  |  |  |  |  |  |  |  |  |  | 0.602 | 0.73 | 18 h | 2- to 6 fold
5 | Cc1cc(-c2ccc(NC(=O)CCCC(=O)N[C@@H](CCCCNC(=O)CN3CCN(CC(=O)[O-])CCN(CC(=O)[O-])CCN(CC(=O)[O-])CC3)C(=O)N3CCN(CCCOc4ccc5nccc(C(=O)NCC(=O)N6CC(F)(F)C[C@H]6C#N)c5c4)CC3)c(C)c2)ccc1N=Nc1ccc2c(S(=O)(=O)O)cc(S(=O)(=O)O)c(N)c2c1O.[68Ga+3] [^68Ga-TEFAPI-07] |  |  |  |  | 7.81 ± 2.28 nM |  | almost negligible uptake | 23.15% ± 2.16% | 54.28% ± 4.98% | 40.56% ± 5.25% | about 2 min | significant uptake |  |  |  | 
6 | Cc1cc(-c2ccc(NC(=O)CCCC(=O)N[C@@H](CCCCNC(=O)CN3CCN(CC(=O)[O-])CCN(CC(=O)[O-])CCN(CC(=O)[O-])CC3)C(=O)N3CCN(CCCOc4ccc5nccc(C(=O)NCC(=O)N6CC(F)(F)C[C@H]6C#N)c5c4)CC3)c(C)c2)ccc1N=Nc1ccc2c(S(=O)(=O)O)cc(S(=O)(=O)O)c(N)c2c1O.[86Y+3] [^86Y-TEFAPI-07] |  |  |  |  |  |  |  |  |  |  |  |  | 0.606 | 0.81 | 8 h | 2- to 6 fold
